Measured values: ChEMBL document CHEMBL4649992, “Discovery of I-BRD9, a Selective Cell Active Chemical Probe for Bromodomain Containing Protein 9 Inhibition” (J Med Chem, 2016)

Key:
[1] = target: Bromodomain-containing protein 2 (Homo sapiens) (UniProt P25440); conditions: Compound concentration 10.0 uM, Protein concentration 2.0 uM
[2] = target: Bromodomain-containing protein 4 (Homo sapiens) (UniProt O60885); conditions: Compound concentration 10.0 uM, Protein concentration 2.0 uM
[3] = target: Bromodomain-containing protein 9 (Homo sapiens) (UniProt Q9H8M2); conditions: Compound concentration 10.0 uM, Protein concentration 2.0 uM
[4] = target: SWI/SNF-related matrix-associated actin-dependent regulator of chromatin subfamily A member 2 (Homo sapiens) (UniProt P51531); conditions: Compound concentration 10.0 uM, Protein concentration 2.0 uM
[5] = target: Bromodomain-containing protein 4 (Homo sapiens) (UniProt O60885); conditions: Compound concentration 10.0 uM, Protein concentration 2.0 uM; remark: listed apart in the source
[6] = target: Bromodomain adjacent to zinc finger domain protein 2A (Homo sapiens) (UniProt Q9UIF9); conditions: Compound concentration 10.0 uM, Protein concentration 2.0 uM
[7] = target: Bromodomain-containing protein 2 (Homo sapiens) (UniProt P25440); conditions: Compound concentration 10.0 uM, Protein concentration 2.0 uM; remark: listed apart in the source
[8] = target: Protein polybromo-1 (Homo sapiens) (UniProt Q86U86); conditions: Compound concentration 10.0 uM, Protein concentration 2.0 uM
Protein polybromo-1 (Homo sapiens), sequence (Q86U86 whole entry): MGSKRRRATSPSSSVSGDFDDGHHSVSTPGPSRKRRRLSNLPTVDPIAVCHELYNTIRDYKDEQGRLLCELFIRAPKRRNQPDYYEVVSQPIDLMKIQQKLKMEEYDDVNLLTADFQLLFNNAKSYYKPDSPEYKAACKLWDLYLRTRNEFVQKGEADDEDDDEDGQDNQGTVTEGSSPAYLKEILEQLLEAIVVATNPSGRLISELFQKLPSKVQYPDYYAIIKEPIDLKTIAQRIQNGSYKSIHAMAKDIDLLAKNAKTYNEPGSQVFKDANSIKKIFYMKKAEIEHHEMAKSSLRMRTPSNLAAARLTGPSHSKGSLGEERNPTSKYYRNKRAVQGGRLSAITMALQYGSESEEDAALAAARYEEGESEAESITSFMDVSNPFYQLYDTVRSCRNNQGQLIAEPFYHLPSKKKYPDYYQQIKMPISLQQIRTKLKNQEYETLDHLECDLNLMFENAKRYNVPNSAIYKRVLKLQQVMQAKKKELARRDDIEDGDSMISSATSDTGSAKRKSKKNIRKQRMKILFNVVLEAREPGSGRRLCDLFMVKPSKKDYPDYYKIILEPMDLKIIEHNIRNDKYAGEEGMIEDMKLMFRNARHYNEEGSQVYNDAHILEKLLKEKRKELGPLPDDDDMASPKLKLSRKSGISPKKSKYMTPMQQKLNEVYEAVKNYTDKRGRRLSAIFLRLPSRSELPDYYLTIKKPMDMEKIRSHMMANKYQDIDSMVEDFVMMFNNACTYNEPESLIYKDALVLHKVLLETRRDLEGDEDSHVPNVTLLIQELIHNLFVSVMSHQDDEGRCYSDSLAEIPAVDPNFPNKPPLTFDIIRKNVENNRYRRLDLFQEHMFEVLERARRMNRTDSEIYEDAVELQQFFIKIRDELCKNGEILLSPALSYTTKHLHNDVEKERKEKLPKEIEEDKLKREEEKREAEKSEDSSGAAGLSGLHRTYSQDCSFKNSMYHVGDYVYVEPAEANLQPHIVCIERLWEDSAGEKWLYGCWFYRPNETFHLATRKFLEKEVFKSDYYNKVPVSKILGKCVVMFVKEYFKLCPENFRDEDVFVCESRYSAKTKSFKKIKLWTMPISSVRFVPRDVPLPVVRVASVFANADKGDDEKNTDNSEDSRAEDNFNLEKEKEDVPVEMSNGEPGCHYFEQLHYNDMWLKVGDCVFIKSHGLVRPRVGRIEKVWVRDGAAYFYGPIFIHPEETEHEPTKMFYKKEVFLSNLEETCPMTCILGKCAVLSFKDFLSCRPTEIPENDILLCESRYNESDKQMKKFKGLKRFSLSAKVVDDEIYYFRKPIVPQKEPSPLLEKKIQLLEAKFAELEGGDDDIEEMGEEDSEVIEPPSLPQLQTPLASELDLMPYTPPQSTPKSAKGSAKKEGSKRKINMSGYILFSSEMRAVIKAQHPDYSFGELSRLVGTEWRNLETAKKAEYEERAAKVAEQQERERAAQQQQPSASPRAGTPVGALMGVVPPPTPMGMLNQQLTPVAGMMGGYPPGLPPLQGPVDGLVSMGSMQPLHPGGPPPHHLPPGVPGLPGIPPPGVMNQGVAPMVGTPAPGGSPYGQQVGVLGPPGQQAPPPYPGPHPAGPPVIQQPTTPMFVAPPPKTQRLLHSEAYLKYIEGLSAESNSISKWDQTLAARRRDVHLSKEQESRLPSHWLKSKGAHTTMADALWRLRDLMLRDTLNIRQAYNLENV

[9] = target: Bromodomain and WD repeat-containing protein 1 (Homo sapiens) (UniProt Q9NSI6); conditions: Compound concentration 10.0 uM, Protein concentration 2.0 uM
[10] = target: Histone acetyltransferase KAT2B (Homo sapiens) (UniProt Q92831); conditions: Compound concentration 10.0 uM, Protein concentration 2.0 uM
[11] = target: Transcription intermediary factor 1-beta (Homo sapiens) (UniProt Q13263); conditions: Compound concentration 10.0 uM, Protein concentration 2.0 uM
[12] = target: Transcription initiation factor TFIID subunit 1-like (Homo sapiens) (UniProt Q8IZX4); conditions: Compound concentration 10.0 uM, Protein concentration 2.0 uM
[13] = target: Transcription initiation factor TFIID subunit 1 (Homo sapiens) (UniProt P21675); conditions: Compound concentration 10.0 uM, Protein concentration 2.0 uM
Transcription initiation factor TFIID subunit 1 (Homo sapiens), sequence (P21675 whole entry): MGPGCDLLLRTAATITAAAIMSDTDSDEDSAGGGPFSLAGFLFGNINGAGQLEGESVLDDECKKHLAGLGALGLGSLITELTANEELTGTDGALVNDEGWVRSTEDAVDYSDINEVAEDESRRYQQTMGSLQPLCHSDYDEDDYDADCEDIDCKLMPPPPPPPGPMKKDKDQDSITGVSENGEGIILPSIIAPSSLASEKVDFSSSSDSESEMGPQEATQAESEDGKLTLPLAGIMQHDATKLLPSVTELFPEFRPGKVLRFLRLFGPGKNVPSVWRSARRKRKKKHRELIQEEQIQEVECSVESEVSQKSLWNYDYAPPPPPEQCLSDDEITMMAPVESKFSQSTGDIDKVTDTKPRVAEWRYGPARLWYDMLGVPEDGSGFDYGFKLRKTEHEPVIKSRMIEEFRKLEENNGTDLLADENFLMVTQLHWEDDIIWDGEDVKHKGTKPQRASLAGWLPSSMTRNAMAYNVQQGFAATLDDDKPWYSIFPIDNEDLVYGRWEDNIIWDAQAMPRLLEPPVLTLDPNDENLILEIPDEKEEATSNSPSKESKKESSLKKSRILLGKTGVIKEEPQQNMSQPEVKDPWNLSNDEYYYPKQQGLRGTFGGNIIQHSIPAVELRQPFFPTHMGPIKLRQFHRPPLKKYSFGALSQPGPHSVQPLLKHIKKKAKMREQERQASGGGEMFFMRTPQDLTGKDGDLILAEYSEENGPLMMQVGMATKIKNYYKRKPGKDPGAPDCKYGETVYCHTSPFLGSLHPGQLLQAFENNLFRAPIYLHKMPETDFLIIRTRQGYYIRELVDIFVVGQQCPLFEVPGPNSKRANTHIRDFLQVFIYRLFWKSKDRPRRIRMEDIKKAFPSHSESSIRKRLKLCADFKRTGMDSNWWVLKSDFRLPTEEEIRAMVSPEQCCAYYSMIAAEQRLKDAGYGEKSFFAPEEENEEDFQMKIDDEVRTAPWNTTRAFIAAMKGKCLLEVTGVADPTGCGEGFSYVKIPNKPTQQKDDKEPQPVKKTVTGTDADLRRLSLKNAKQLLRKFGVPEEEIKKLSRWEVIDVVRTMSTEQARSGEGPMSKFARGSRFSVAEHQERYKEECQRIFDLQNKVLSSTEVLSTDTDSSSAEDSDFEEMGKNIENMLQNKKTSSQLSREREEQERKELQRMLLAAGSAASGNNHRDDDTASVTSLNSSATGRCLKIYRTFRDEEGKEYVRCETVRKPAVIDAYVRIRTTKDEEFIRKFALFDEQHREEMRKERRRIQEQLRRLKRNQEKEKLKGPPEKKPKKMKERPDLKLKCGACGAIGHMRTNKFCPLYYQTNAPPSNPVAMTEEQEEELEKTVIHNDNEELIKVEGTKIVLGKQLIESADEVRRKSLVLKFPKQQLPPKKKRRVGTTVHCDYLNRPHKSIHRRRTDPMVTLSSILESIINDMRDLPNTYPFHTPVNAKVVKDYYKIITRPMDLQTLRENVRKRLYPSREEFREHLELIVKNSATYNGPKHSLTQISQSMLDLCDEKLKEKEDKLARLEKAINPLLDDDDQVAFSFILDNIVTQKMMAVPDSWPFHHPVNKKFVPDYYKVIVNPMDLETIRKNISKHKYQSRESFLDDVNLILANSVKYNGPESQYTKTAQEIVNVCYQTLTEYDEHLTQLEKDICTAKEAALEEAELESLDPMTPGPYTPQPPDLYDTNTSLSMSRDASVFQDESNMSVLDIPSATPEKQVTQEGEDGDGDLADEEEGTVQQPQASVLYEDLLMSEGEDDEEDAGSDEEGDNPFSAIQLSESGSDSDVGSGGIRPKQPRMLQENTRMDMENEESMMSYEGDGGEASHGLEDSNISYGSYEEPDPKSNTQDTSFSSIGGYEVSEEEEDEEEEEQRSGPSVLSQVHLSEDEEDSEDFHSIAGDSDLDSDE

[14] = target: Transcription intermediary factor 1-alpha (Homo sapiens) (UniProt O15164); conditions: Compound concentration 10.0 uM, Protein concentration 2.0 uM
[15] = target: Bromodomain-containing protein 7 (Homo sapiens) (UniProt Q9NPI1); conditions: Compound concentration 10.0 uM, Protein concentration 2.0 uM
[16] = target: Histone acetyltransferase p300 (Homo sapiens) (UniProt Q09472); conditions: Compound concentration 10.0 uM, Protein concentration 2.0 uM
[17] = target: Bromodomain-containing protein 1 (Homo sapiens) (UniProt O95696); conditions: Compound concentration 10.0 uM, Protein concentration 2.0 uM
[18] = target: PH-interacting protein (Homo sapiens) (UniProt Q8WWQ0); conditions: Compound concentration 10.0 uM, Protein concentration 2.0 uM
[19] = target: Transcription intermediary factor 1-alpha (Homo sapiens) (UniProt O15164); conditions: Compound concentration 10.0 uM, Protein concentration 2.0 uM; remark: listed apart in the source
[20] = target: CREB-binding protein (Homo sapiens) (UniProt Q92793); conditions: Compound concentration 10.0 uM, Protein concentration 2.0 uM
[21] = target: Bromodomain-containing protein 3 (Homo sapiens) (UniProt Q15059); conditions: Compound concentration 10.0 uM, Protein concentration 2.0 uM
[22] = target: ATPase family AAA domain-containing protein 2B (Homo sapiens) (UniProt Q9ULI0); conditions: Compound concentration 10.0 uM, Protein concentration 2.0 uM
[23] = target: Bromodomain-containing protein 9 (Homo sapiens) (UniProt Q9H8M2); experiment: Alphascreen assay. Domain start/stop: L14-Q143; conditions: Compound concentration 0.25 uM, Protein concentration 5.0 uM
[24] = target: Transcription initiation factor TFIID subunit 1 (Homo sapiens) (UniProt P21675); conditions: Compound concentration 10.0 uM, Protein concentration 2.0 uM; remark: listed apart in the source
[25] = target: Histone-lysine N-methyltransferase 2A (Homo sapiens) (UniProt Q03164); conditions: Compound concentration 10.0 uM, Protein concentration 2.0 uM
[26] = target: Protein polybromo-1 (Homo sapiens) (UniProt Q86U86); conditions: Compound concentration 10.0 uM, Protein concentration 2.0 uM; remark: listed apart in the source
[27] = target: Protein polybromo-1 (Homo sapiens) (UniProt Q86U86); conditions: Compound concentration 10.0 uM, Protein concentration 2.0 uM; remark: listed apart in the source
[28] = target: Transcription initiation factor TFIID subunit 1-like (Homo sapiens) (UniProt Q8IZX4); conditions: Compound concentration 10.0 uM, Protein concentration 2.0 uM; remark: listed apart in the source
[29] = target: Protein polybromo-1 (Homo sapiens) (UniProt Q86U86); conditions: Compound concentration 10.0 uM, Protein concentration 2.0 uM; remark: listed apart in the source
[30] = target: Nuclear body protein SP140 (Homo sapiens) (UniProt Q13342); conditions: Compound concentration 10.0 uM, Protein concentration 2.0 uM
[31] = target: Nucleosome-remodeling factor subunit BPTF (Homo sapiens) (UniProt Q12830); conditions: Compound concentration 10.0 uM, Protein concentration 2.0 uM
Peregrin (Homo sapiens) [32] = target: T1, Peregrin (Homo sapiens) (UniProt P55201); experiment: Alphascreen assay. Domain start/stop: M626-G740; conditions: Compound concentration 4.0 uM, Protein concentration 50.0 uM
T1 sequence (whole entry): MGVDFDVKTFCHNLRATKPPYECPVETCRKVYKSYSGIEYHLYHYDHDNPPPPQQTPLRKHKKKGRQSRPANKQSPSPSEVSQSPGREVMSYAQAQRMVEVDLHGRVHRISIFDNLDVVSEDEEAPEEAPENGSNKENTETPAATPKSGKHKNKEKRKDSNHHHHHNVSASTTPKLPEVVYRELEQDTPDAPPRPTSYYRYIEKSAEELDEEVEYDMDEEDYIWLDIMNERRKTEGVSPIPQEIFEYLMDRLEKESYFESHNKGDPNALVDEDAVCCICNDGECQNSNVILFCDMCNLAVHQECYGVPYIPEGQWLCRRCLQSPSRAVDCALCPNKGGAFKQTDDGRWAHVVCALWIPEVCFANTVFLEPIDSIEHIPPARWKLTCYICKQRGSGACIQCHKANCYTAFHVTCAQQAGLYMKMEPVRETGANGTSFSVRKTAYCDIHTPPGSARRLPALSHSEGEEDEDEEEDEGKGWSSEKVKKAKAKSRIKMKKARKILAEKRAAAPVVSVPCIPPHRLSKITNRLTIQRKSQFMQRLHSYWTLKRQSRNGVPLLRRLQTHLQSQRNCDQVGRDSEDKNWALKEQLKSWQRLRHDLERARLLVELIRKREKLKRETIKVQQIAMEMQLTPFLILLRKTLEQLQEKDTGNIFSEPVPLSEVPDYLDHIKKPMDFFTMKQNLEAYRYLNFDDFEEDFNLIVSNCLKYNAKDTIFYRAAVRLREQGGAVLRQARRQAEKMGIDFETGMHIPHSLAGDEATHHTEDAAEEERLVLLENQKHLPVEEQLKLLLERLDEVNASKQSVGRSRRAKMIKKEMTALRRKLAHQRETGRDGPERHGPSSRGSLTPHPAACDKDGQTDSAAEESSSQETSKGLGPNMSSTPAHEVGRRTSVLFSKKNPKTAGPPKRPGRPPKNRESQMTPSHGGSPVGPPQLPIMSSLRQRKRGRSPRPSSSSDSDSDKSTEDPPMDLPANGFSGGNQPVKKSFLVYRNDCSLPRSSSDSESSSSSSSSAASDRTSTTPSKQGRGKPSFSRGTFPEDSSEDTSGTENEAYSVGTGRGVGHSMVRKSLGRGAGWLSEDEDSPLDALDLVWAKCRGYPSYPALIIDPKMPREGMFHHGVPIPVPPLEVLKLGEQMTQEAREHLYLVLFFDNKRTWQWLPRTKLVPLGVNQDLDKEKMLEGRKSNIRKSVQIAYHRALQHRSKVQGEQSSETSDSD

[33] = target: ATPase family AAA domain-containing protein 2 (Homo sapiens) (UniProt Q6PL18); conditions: Compound concentration 10.0 uM, Protein concentration 2.0 uM
Peregrin (Homo sapiens) [34] = target: T1, Peregrin (Homo sapiens); conditions: Compound concentration 10.0 uM, Protein concentration 2.0 uM
[35] = target: Protein polybromo-1 (Homo sapiens) (UniProt Q86U86); conditions: Compound concentration 10.0 uM, Protein concentration 2.0 uM; remark: listed apart in the source
[36] = target: Histone acetyltransferase KAT2A (Homo sapiens) (UniProt Q92830); conditions: Compound concentration 10.0 uM, Protein concentration 2.0 uM
[37] = target: Bromodomain-containing protein 3 (Homo sapiens) (UniProt Q15059); conditions: Compound concentration 10.0 uM, Protein concentration 2.0 uM; remark: listed apart in the source
[38] = target: Bromodomain adjacent to zinc finger domain protein 1A (Homo sapiens) (UniProt Q9NRL2); conditions: Compound concentration 10.0 uM, Protein concentration 2.0 uM
[39] = target: Bromodomain testis-specific protein (Homo sapiens) (UniProt Q58F21); conditions: Compound concentration 10.0 uM, Protein concentration 2.0 uM
[40] = target: Bromodomain testis-specific protein (Homo sapiens) (UniProt Q58F21); conditions: Compound concentration 10.0 uM, Protein concentration 2.0 uM; remark: listed apart in the source
Peregrin (Homo sapiens) [41] = target: T1, Peregrin (Homo sapiens); conditions: Compound concentration 10.0 uM, Protein concentration 2.0 uM; remark: listed apart in the source
[42] = target: Bromodomain adjacent to zinc finger domain protein 2B (Homo sapiens) (UniProt Q9UIF8); conditions: Compound concentration 10.0 uM, Protein concentration 2.0 uM
[43] = target: Protein polybromo-1 (Homo sapiens) (UniProt Q86U86); conditions: Compound concentration 10.0 uM, Protein concentration 2.0 uM; remark: listed apart in the source
[44] = target: Tyrosine-protein kinase BAZ1B (Homo sapiens) (UniProt Q9UIG0); conditions: Compound concentration 10.0 uM, Protein concentration 2.0 uM
[45] = target: Chromatin remodeling regulator CECR2 (Homo sapiens) (UniProt Q9BXF3); conditions: Protein concentration 19.0 uM
Chromatin remodeling regulator CECR2 (Homo sapiens), sequence (Q9BXF3 whole entry, looked up): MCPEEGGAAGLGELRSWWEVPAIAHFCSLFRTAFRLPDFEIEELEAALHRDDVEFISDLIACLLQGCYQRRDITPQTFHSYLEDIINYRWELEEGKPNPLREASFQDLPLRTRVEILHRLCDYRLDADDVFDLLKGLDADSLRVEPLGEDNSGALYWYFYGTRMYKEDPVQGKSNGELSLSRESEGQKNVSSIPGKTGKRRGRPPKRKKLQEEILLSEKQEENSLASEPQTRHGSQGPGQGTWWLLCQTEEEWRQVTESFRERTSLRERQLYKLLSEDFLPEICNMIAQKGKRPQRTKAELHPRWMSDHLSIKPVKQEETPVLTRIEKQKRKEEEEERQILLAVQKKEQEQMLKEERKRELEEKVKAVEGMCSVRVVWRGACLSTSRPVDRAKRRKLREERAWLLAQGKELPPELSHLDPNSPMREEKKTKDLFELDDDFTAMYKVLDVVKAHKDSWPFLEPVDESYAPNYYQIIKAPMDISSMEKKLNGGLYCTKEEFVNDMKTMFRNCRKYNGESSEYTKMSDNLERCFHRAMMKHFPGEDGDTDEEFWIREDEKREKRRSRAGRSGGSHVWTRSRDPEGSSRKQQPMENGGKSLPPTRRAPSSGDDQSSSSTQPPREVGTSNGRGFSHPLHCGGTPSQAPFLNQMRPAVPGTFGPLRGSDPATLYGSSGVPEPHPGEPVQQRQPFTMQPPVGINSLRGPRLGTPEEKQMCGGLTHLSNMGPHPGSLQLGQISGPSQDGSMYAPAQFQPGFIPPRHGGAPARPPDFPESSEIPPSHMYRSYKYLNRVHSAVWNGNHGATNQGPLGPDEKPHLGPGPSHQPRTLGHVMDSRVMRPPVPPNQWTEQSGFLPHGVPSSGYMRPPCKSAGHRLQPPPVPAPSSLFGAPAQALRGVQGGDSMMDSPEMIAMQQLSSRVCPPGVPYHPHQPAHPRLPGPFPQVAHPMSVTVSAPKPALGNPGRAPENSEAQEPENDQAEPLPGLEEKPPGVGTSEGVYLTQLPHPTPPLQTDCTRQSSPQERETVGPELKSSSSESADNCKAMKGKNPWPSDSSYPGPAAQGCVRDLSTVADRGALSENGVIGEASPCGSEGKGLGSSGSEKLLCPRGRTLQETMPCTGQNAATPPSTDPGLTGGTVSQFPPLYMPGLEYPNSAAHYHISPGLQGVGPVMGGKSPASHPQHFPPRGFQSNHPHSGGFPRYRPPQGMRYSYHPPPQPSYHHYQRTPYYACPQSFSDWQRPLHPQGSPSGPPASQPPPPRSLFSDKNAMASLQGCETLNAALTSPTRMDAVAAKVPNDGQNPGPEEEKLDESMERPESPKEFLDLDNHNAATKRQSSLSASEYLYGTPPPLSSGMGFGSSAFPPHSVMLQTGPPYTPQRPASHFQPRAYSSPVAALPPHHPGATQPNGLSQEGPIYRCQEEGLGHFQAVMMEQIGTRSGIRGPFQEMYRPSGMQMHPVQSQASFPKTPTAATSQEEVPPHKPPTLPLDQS

[46] = target: Nuclear body protein SP140-like protein (Homo sapiens) (UniProt Q9H930); conditions: Compound concentration 10.0 uM, Protein concentration 2.0 uM
[47] = target: SWI/SNF-related matrix-associated actin-dependent regulator of chromatin subfamily A member 4 (Homo sapiens) (UniProt P51532); conditions: Compound concentration 10.0 uM, Protein concentration 2.0 uM
[48] = target: Nucleosome-remodeling factor subunit BPTF (Homo sapiens) (UniProt Q12830)
Description: Alphascreen assay. Domain start/stop: S2791-H2911

[49] = target: Bromodomain and PHD finger-containing protein 3 (Homo sapiens) (UniProt Q9ULD4); conditions: Compound concentration 10.0 uM, Protein concentration 2.0 uM
[50] = target: Histone-lysine N-methyltransferase ASH1L (Homo sapiens) (UniProt Q9NR48); conditions: Compound concentration 10.0 uM, Protein concentration 2.0 uM
[51] = target: Chromatin remodeling regulator CECR2 (Homo sapiens) (UniProt Q9BXF3); conditions: Compound concentration 10.0 uM, Protein concentration 2.0 uM
[52] = target: Bromodomain and WD repeat-containing protein 3 (Homo sapiens) (UniProt Q6RI45); conditions: Compound concentration 10.0 uM, Protein concentration 2.0 uM

Structure (SMILES): CCn1cc(-c2cccc(C(F)(F)F)c2)c2sc(C(=N)NC3CCS(=O)(=O)CC3)cc2c1=O
- ΔTm [1]: 1.39 °C
- ΔTm [2]: 3.6 °C
- ΔTm [3]: 14.4 °C
- ΔTm [4]: 0.72 °C
- ΔTm [5]: 1.92 °C
- ΔTm [6]: 0.67 °C
- ΔTm [7]: 2.54 °C
- ΔTm [8]: 0.63 °C
- ΔTm [9]: 0.71 °C
- ΔTm [10]: 0.36 °C
- ΔTm [11]: 0.66 °C
- ΔTm [12]: 0.9 °C
- ΔTm [13]: 0.49 °C
- ΔTm [14]: 1.09 °C
- ΔTm [15]: 11.1 °C
- ΔTm [16]: 6.07 °C
- ΔTm [17]: 0.98 °C
- ΔTm [18]: 0.95 °C
- ΔTm [19]: 1.86 °C
- ΔTm [20]: 5.94 °C
- ΔTm [21]: 1.79 °C
- ΔTm [22]: 0.97 °C
- inhibition [23]: 94.3%
- ΔTm [24]: 0.5 °C
- ΔTm [25]: 0.44 °C
- ΔTm [26]: 0.36 °C
- ΔTm [27]: 0.54 °C
- ΔTm [28]: 0.59 °C
- ΔTm [29]: 0.36 °C
- ΔTm [30]: 1.36 °C
- ΔTm [31]: 0.58 °C
- inhibition (Peregrin (Homo sapiens) [32]): 18.8%
- ΔTm [33]: 0.99 °C
- ΔTm (Peregrin (Homo sapiens) [34]): 2.66 °C
- ΔTm [35]: 0.74 °C
- ΔTm [36]: 1.26 °C
- ΔTm [37]: 2.77 °C
- ΔTm [38]: 0.42 °C
- ΔTm [39]: 1.74 °C
- ΔTm [40]: 1.37 °C
- ΔTm (Peregrin (Homo sapiens) [41]): 1.32 °C
- ΔTm [42]: 0.84 °C
- ΔTm [43]: 0.69 °C
- ΔTm [44]: 0.68 °C
- inhibition ([45]; Compound concentration 0.25 uM): 4.99%
- inhibition ([45]; Compound concentration 4.0 uM): 99.5%
- ΔTm [46]: 3 °C
- ΔTm [47]: 0.68 °C
- inhibition ([48]; Compound concentration 0.25 uM, Protein concentration 20.0 uM): -2.87%
- inhibition ([48]; Compound concentration 4.0 uM, Protein concentration 19.0 uM): -1.93%
- ΔTm [49]: 1.17 °C
- ΔTm [50]: 1.17 °C
- ΔTm [51]: 9.43 °C
- ΔTm [52]: 2.31 °C
